From ChEMBL document CHEMBL1201862, “PubChem BioAssay data set” (2004) come the findings set out here.

Test [1] concerns the target Glyceraldehyde-3-phosphate dehydrogenase (Homo sapiens, UniProt P04406).
The target in test [2] is T1, Bcl-2-related protein A1 (Mus musculus, UniProt Q07440).
T1 sequence (Q07440 whole entry): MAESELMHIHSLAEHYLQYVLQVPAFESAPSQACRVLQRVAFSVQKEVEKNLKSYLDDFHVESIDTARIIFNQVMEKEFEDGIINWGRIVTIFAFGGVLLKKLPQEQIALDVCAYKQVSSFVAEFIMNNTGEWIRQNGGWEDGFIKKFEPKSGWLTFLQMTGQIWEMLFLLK
Put plainly: Bfl-1 inhibitors blocking BH3 peptide binding, confirmation, biochemical, TR-FRET, mouse Bfl-1 (AID 621).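 Also: TR-FRET binding of GST-Bfl-1 to FITC-labelled Bid peptide via terbium antibody.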 Background: Time-resolved FRET reads energy transfer from a long-lived donor to a nearby acceptor.

Test [3] has as its target T1, Bcl-2-related protein A1. The test is described as follows: Bfl-1 binding inhibitors, SAR follow-up, biochemical, fluorescence polarization (AID 1070). (In general: In fluorescence polarisation assays a small probe gives low polarisation when free and higher when bound to something large.)
The next test deals with Genome polyprotein (Hepatitis C virus, UniProt Q2Q167). The test is described as follows: HCV core protein dimerization inhibitors, dose response, biochemical, TR-FRET (AID 2159).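 Also: blocks dimerization of HCV core protein measured by TR-FRET between tagged core106 pairs.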 Also on record: species or system Hepacivirus hominis.
Genome polyprotein, sequence (Q2Q167 whole entry): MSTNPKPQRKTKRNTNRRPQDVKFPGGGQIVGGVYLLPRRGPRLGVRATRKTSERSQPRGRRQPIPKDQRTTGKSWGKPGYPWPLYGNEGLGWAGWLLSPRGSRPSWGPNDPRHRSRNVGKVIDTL
A further test concerns the target T2, Bcl-2-like protein 10 (Homo sapiens, UniProt Q9HD36).
T2 sequence (Q9HD36 whole entry): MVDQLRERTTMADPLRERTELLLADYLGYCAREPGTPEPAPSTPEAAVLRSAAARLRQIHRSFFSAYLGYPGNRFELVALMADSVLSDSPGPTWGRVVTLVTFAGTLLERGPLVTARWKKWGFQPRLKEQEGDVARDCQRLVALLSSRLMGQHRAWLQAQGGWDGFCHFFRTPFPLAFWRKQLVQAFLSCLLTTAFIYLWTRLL
The test is described as follows: displacers of TR3 peptide from Bcl-B, primary screen, selectivity assay for Bfl-1 inhibitor project, biochemical, fluorescence polarization, FITC-TR3 peptide (AID 748).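 Also: fluorescence polarization from a fluorescein-labelled TR3 peptide binding purified Bcl-B.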

For test [4], the target named is T3, SUMO-activating enzyme (Homo sapiens, UniProt Q9UBT2). The test is described as follows: SUMOylation inhibitor hit validation, confirmation, SUMOylation inhibitor project, biochemical, AlphaScreen (AID 2018). Format: functional. Background: In Alpha technology, singlet oxygen from a donor bead excites a nearby acceptor bead.
T3 sequence (Q9UBE0 whole entry): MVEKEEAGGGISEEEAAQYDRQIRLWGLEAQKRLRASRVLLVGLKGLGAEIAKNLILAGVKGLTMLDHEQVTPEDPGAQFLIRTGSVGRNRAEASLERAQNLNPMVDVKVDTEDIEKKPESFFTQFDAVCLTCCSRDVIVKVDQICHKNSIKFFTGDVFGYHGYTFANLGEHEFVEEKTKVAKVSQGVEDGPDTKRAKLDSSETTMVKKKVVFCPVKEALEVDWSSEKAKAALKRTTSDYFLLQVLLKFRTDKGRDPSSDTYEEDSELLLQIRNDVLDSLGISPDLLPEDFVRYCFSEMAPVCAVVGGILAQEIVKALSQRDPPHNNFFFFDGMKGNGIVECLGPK
T3 sequence (Q9UBT2 whole entry): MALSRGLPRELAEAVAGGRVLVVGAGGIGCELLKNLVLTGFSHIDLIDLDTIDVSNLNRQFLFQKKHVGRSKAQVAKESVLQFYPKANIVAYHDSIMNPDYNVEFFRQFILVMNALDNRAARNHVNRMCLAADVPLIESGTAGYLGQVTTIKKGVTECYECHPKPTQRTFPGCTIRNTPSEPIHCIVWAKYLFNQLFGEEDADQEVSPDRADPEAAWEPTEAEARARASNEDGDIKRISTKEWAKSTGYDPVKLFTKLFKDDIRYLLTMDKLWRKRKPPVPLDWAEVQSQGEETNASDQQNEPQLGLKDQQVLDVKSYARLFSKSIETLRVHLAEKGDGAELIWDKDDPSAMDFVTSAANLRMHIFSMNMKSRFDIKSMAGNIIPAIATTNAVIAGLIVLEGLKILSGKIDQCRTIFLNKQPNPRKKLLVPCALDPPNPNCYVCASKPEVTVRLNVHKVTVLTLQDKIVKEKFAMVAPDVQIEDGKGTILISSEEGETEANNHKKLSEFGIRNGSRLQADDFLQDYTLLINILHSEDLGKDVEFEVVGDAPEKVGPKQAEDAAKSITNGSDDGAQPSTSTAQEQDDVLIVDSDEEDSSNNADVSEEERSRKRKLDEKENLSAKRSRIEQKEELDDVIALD
Test [5] concerns the target T3, SUMO-activating enzyme. Put plainly: inhibitors of in vitro SUMOylation cascade, primary screen, biochemical, HTRF, uHTS (AID 2006). Format: protein-complex assay.
The target in test [6] is Protein-tyrosine kinase 2-beta (Homo sapiens, UniProt Q14289).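 Also: potency of inhibitors of PYK2 kinase phosphorylation of poly-GT substrate.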
Test [7] concerns the target Induced myeloid leukemia cell differentiation protein Mcl-1 (Homo sapiens, UniProt Q07820). Format: functional.
A further test addresses SUMO E1/E2 (Homo sapiens, UniProt P63279+Q9UBE0+Q9UBT2). Put plainly: SAR analysis of SUMOylation using HTRF in an in-Vitro dose response assay. [Related pubchem assays (depositor defined):AID2006, AID2011, AID2018, AID2069, AID2658]. The format is functional.
In test [8] the target is T4, Voltage-gated N-type calcium channel alpha-1B subunit/Amyloid beta A4 precursor protein-binding family A member 1 (Homo sapiens, UniProt Q00975+Q02410). The test is described as follows: disruptors of Mint-PDZ/N-type channel peptide interaction – biochemical, HTRF, set 2, SAR follow-up (AID 434980). Format: functional.
T4 sequence (Q00975 whole entry): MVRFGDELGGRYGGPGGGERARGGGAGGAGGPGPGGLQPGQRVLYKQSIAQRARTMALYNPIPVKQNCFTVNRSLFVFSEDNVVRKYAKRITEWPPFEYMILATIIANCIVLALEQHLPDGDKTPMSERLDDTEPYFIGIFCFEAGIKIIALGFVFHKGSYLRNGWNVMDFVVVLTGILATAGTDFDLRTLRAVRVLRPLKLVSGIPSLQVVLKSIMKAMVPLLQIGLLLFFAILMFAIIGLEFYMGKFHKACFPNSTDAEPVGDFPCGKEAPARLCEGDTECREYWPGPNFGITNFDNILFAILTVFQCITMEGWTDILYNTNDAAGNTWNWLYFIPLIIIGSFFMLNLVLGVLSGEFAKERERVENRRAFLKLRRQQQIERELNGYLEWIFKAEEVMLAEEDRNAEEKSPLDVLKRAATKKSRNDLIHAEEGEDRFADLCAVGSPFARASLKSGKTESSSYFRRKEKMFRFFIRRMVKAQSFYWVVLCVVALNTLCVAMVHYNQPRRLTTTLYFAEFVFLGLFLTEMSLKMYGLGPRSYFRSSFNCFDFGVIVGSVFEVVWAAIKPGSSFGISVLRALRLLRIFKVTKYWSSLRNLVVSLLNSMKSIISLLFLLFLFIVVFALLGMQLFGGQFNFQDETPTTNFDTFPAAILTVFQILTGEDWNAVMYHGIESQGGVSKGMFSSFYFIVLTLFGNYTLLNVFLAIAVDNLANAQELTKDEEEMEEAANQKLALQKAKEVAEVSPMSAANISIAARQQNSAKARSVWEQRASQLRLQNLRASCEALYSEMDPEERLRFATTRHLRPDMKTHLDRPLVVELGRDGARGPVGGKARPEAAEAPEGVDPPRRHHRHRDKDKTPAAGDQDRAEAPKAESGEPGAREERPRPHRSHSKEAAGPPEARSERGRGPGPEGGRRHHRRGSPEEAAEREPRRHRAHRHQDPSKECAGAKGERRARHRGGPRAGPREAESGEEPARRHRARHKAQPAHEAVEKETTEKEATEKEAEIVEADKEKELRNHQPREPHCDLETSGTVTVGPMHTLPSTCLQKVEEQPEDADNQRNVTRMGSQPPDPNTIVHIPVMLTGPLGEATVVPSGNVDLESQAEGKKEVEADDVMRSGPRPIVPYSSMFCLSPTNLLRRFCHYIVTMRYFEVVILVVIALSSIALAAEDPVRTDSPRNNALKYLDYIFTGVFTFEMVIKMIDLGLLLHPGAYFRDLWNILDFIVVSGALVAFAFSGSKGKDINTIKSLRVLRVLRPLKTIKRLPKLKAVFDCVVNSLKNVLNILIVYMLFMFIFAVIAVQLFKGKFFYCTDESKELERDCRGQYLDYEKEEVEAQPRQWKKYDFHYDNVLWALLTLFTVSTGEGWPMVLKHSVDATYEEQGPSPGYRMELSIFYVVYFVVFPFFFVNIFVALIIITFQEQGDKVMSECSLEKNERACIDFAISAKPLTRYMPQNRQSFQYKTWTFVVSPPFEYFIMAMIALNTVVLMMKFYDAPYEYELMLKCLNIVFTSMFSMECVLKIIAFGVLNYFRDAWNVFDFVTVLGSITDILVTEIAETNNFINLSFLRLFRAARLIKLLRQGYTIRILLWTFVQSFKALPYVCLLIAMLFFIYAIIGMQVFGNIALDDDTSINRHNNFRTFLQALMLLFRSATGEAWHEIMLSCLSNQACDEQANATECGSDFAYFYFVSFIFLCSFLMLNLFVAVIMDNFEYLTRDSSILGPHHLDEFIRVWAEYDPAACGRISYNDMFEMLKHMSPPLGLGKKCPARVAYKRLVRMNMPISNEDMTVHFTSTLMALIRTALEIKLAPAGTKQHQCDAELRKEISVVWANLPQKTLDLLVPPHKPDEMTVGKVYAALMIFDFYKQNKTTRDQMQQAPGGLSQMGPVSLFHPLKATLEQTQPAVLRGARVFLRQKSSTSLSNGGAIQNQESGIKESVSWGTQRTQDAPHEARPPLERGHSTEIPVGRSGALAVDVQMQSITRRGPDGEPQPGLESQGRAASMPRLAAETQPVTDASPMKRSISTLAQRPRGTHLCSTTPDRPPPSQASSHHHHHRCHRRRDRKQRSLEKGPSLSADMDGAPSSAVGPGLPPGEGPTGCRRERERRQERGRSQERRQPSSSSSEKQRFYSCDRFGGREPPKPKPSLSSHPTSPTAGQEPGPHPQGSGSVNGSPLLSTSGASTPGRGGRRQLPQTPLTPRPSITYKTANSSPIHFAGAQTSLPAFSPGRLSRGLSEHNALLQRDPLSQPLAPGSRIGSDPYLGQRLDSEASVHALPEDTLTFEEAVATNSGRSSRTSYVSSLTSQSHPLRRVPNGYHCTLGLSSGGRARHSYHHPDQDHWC
T4 sequence (Q02410 whole entry): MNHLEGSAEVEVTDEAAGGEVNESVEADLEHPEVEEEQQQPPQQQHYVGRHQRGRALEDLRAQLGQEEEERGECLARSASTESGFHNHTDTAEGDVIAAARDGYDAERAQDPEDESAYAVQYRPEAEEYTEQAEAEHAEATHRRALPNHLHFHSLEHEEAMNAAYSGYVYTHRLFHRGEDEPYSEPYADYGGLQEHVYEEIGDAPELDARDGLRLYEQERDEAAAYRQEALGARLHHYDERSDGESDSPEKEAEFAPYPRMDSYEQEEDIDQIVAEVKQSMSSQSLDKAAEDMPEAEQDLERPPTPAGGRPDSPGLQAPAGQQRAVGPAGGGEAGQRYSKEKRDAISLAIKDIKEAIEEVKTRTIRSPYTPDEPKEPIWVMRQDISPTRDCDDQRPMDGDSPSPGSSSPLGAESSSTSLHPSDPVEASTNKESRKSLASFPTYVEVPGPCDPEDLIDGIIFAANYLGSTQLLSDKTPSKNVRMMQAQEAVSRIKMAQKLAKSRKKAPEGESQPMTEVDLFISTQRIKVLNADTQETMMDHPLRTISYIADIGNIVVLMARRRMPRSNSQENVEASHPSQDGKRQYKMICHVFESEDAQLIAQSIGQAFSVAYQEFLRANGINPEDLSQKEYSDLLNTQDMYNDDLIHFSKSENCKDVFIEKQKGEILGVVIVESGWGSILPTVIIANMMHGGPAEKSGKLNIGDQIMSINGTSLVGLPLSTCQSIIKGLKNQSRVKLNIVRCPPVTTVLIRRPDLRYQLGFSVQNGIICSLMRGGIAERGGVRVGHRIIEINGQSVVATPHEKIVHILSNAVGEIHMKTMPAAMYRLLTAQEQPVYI
Test [9] deals with T4, Voltage-gated N-type calcium channel alpha-1B subunit/Amyloid beta A4 precursor protein-binding family A member 1. Put plainly: disruptors of Mint-PDZ/N-type channel peptide interaction – biochemical, HTRF, SAR follow-up (AID 2489). Format: functional.
Test [10] addresses DNA (cytosine-5)-methyltransferase 1 (Homo sapiens, UniProt P26358). Put plainly: DNMT1 methyltransferase inhibitors, confirmation, biochemical, fluorescent molecular beacon (AID 602386). The format is functional.
The target of the next test is T5, Protein Tat (Human immunodeficiency virus type 1 group M subtype B (isolate HXB2)(HIV-1), UniProt P04608).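 Also: tat binding to TAR RNA read out by fluorescence polarization.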
T5 sequence (P04608 whole entry): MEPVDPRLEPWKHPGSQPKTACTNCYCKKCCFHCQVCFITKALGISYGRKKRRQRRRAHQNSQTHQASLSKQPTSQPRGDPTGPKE
Format: functional.

The nature of test [11]: THP-1 cell cytotoxicity, dose response, cytotoxicity control for Vif-APOBEC3G degradation inhibitor project, THP-1 cells (AID 1117359). The format is functional. To be noted: Human immunodeficiency virus 1, THP-1.
For a further test, the target named is T6, Leucine aminopeptidase (Plasmodium falciparum 3D7, UniProt Q8IL11).
T6 sequence (Q8IL11 whole entry): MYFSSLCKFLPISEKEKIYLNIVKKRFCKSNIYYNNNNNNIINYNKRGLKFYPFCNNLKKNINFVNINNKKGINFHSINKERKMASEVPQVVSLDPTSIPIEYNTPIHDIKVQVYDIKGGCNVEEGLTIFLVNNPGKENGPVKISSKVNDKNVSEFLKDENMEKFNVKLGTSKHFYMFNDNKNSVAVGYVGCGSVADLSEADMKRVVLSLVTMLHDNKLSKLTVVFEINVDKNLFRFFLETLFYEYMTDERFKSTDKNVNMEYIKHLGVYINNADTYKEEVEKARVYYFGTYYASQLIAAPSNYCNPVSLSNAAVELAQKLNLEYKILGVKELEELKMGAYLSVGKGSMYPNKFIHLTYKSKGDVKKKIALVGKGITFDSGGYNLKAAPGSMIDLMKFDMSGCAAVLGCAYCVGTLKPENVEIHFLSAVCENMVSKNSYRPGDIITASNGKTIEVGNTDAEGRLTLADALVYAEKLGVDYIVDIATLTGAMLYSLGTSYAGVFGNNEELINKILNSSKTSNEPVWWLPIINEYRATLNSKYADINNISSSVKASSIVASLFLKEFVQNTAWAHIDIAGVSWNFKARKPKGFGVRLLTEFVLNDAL
The test is described as follows: P. falciparum M17LAP inhibitors, primary screen, biochemical, fluorogenic H-Leu-NHMec substrate, 1536-well (AID 1619). The format is functional.

A further test addresses Aspartyl aminopeptidase (Plasmodium falciparum 3D7, UniProt Q8I2J3). The test is described as follows: Counterscreen for inhibitors of M1 and M17 aminopeptidases: QFRET-based biochemical high throughput dose response assay for inhibitors of the Plasmodium falciparum M18 Aspartyl Aminopeptidase (PFM18AAP). [Related PubChem assays: 1619 (Screening assay (M17LAP inhibitors).), 1445 (Screening assay (M1AAP inhibitors).)].

For a further test, the target named is Procathepsin L (Homo sapiens, UniProt P07711). Put plainly: cathepsin L inhibitors, dose response, counter-screen for M1/M17 aminopeptidase inhibitor project, biochemical, QFRET, 1536-well (AID 2214).
The nature of test [12]: Luminescence Cell-Based Dose Confirmation HTS to Identify Inhibitors of Polyadenylation. The format is functional.
Test [13] has as its target T7, RNA-binding protein pos-1 (Caenorhabditis elegans, UniProt G5EF15).
T7 sequence (G5EF15 whole entry): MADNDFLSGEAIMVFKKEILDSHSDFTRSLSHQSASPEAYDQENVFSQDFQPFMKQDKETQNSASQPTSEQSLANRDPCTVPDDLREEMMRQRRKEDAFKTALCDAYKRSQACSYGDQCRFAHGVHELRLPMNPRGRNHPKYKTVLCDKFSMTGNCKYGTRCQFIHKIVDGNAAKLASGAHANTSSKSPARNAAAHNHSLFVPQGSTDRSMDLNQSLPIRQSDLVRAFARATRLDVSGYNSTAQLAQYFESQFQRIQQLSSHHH
The test is described as follows: inhibitors of POS-1/mex-3 RNA binding, dose response, biochemical, fluorescence polarization (AID 1964).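 Also: purified POS-1 fused to maltose binding protein made in E. coli; potency of compounds blocking POS-1 binding to fluorescent RNA.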

Test [14] has as its target T8, Zinc finger protein mex-5 (Caenorhabditis elegans, UniProt Q9XUB2).
T8 sequence (Q9XUB2 whole entry): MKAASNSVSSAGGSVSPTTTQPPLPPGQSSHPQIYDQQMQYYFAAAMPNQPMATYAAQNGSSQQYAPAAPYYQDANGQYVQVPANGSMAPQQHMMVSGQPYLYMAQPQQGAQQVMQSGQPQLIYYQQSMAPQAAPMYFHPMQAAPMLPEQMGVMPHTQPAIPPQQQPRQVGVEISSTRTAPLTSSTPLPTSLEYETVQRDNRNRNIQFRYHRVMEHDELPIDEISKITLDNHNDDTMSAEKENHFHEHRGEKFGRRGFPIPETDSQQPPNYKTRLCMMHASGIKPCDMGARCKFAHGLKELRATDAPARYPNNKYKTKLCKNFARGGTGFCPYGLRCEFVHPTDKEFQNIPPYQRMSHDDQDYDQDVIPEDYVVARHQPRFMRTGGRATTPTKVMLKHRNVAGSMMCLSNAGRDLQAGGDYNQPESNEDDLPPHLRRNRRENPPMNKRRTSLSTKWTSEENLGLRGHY
Put plainly: MEX-5/TCR-2 RNA interaction inhibitors, dose response, biochemical, C. elegans, fluorescence polarization (AID 1960).

A short description of test [15]: Escherichia coli growth inhibition, dose response, counter-screen for MEX-5/POS-1 RNA-binding inhibitor project, luminescence, NEB5alpha (AID 1959). Format: functional.
Another test concerns the target Large T antigen (Simian virus 40, UniProt P03070). Format: functional, Betapolyomavirus macacae.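 Also: Confirmatory-stage PubChem screen for compounds that inhibit SV40 T antigen.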
The target in test [16] is Luciferin 4-monooxygenase (Photinus pyralis, UniProt P08659). The test is described as follows: firefly luciferase enzyme inhibitors, dose response, biochemical, luminescence (AID 1891).
Test [17] can be described thus: Luminescence Cell-Based Dose Confirmation HTS to Identify Inhibitors of Platelet Dense Granule Release. [Related pubchem assays: 1663 (Primary HTS), 1678 (Summary of Project)]. Format: functional.
In test [18] the target is T9, Histone-lysine N-methyltransferase NSD2 (Homo sapiens, UniProt O96028).
T9 sequence (O96028 whole entry): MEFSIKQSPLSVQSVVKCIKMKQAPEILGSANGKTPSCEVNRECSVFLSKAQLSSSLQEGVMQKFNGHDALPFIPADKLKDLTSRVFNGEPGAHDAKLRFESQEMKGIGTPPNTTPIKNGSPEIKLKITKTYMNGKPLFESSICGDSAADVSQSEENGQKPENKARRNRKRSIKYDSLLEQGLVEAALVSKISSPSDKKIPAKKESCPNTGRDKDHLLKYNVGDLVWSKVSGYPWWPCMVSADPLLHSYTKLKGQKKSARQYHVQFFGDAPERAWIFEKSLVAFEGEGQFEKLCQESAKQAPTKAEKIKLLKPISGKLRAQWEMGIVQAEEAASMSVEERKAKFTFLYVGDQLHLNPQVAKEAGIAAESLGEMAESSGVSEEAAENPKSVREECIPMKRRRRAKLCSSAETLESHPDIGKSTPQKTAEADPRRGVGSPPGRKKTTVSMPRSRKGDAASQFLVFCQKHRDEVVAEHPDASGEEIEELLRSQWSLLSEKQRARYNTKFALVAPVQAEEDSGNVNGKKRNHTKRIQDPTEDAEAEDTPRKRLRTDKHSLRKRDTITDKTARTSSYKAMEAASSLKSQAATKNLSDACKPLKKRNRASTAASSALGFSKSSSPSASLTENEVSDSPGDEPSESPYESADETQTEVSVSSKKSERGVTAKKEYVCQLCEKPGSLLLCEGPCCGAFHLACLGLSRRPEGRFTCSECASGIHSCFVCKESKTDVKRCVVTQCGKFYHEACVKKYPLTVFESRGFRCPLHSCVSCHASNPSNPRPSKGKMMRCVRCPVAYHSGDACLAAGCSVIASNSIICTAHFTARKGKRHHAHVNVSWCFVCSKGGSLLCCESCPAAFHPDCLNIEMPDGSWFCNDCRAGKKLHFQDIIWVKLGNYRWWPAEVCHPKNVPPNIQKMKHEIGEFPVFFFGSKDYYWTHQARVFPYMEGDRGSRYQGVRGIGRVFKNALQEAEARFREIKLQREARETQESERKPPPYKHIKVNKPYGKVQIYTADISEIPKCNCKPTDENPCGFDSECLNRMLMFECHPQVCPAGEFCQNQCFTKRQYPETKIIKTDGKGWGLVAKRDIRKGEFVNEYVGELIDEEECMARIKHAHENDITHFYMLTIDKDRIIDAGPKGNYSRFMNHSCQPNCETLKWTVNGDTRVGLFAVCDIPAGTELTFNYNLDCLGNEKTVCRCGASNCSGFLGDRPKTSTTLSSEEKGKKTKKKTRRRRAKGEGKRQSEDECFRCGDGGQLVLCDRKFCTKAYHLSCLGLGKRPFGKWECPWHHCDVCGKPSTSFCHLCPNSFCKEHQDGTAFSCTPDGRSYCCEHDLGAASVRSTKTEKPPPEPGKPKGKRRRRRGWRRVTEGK
The format is biochemical.

Structures are written as SMILES. Calls of active or inactive are those of the source. Bounds are passed on as bounds.

SUMO E1/E2, sequence (Q9UBE0 whole entry): as the sequence (Q9UBE0 whole entry) above
SUMO E1/E2, sequence (Q9UBT2 whole entry): as the sequence (Q9UBT2 whole entry) above
SUMO E1/E2, sequence (P63279 whole entry): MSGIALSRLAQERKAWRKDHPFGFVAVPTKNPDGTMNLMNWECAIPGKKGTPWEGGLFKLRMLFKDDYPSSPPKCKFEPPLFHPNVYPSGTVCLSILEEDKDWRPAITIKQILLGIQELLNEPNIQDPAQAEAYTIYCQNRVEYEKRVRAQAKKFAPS
Glyceraldehyde-3-phosphate dehydrogenase, sequence (P04406 whole entry): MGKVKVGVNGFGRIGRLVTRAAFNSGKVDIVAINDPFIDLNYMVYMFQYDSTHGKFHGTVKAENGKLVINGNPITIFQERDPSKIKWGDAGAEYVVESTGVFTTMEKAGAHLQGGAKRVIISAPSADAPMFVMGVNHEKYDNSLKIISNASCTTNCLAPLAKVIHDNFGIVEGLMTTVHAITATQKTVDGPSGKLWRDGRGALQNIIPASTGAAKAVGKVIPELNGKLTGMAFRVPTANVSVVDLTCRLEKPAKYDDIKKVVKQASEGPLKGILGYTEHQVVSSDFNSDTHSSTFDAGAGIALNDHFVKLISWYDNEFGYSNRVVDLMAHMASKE

The IC50 is the concentration that inhibits the measured activity by half. On to `CC1C(=O)NCCN1C1=C(Cl)C(=O)N(c2ccc(Cl)c(Cl)c2)C1=O` (stereo unspecified), for which the IC50 is > 50 µM (inconclusive) in test [1], 2.03 µM (active) on Bcl-2-related protein A1 [2] and 5.63 µM (active) at Bcl-2-related protein A1 [3].
By CC50 is commonly meant the concentration giving 50% cytotoxicity. Turning to `COc1ccccc1CNC(=O)COC(=O)c1cc(-c2ccco2)nc2ccccc12`, the IC50 against Genome polyprotein was > 49.8 µM (not active); at Bcl-2-like protein 10, 10.7 µM (active); on SUMO-activating enzyme [4] it was 5.42 µM (active); on SUMO-activating enzyme [5] it was 10.6 µM (active); in test [6] it was 5.79 µM (active); in test [7] it was 2.04 µM (active). For the same compound, the IC50 at SUMO E1/E2 is 5.8 µM (active); in test [8], 7.83 µM (active); in [9] it was 22.7 µM (active); in test [10], 7.11 µM (active); on Protein Tat, > 100 µM (active). For the same compound, the CC50 in test [11] is > 40 µM (active).
Consider `Cc1ccc(Nc2nnc(SCc3cc(=O)n4ccsc4n3)s2)c(C)c1`, for which the IC50 at Leucine aminopeptidase was 6.49 µM (active); on Aspartyl aminopeptidase, > 73.5 µM (not active); against Procathepsin L it was > 59.6 µM (not active).
For orientation: EC50 means the concentration that produces a half-maximal response. Turning to `CC(C)CC(Nc1ncnc2scc(-c3ccccc3)c12)C(=O)O` (stereo unspecified), the EC50 in test [12] is recorded as > 120 µM (not active).
Broadly, the AC50 is the concentration giving half of the maximal activity seen. Turning to `O=C(/C=C/c1ccc(O)c(O)c1)c1ccccc1O`, the EC50 in test [13] was > 300 µM (not active); in test [14], 42.3 µM (active); in test [15], 19.5 µM (active); in test [16], 437 nM (active); in test [17], 2.23 µM (active). The IC50 on Large T antigen was 17.4 µM (active). The AC50 in test [18] is > 20 µM (inactive).
